Data set [1] has as its target T1, GST-PERK kinase domain (580–1077 aa) (Mus musculus, UniProt Q9Z2B5).
T1 sequence (Q9Z2B5 580-1077): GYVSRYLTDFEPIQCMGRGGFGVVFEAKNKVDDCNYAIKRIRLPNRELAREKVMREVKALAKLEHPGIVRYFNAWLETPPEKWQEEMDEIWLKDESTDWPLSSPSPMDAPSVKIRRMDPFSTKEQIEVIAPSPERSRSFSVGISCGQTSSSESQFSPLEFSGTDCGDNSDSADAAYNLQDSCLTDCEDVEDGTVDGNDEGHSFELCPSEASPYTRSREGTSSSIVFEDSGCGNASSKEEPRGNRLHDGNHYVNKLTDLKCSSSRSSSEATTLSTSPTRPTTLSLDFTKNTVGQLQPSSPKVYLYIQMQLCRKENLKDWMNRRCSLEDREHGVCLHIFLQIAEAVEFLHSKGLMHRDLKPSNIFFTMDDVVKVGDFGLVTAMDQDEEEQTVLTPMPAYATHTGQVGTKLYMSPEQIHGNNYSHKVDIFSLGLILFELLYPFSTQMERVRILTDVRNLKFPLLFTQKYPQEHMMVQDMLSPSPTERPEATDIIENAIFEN
In words: In vitro GST-PERK kinase assay (eIF2α phosphorylation with γ-[32P]-ATP).

Data set [2] has as its target T2, IRE1α-KR43 (Homo sapiens, UniProt O75460). As to the kind of experiment: FRET-based RNA cleavage assay (fluorescent HP17 substrate) of IRE1α-KR43 RNase activity.
Data set [3] has as its target T2, IRE1α-KR43. In words: IRE1α-KR43 RNA cleavage assay with 5′ [32P]-labeled RNA substrate HP21 (kobs, single turnover). The format is biochemical. Also noted: IRE1α-KR43 comprises the soluble cytoplasmic portion of IRE1α, composed of the kinase and RNase domains plus 43 amino acids of the linker; 6xHis (N, cleaved yes); made in house; host or cells: SF21 insect cells. The following applies: for fold activation of IRE1α-KR43 RNase activity / IRE1α RNase activation (in words): compounds 1 μM, IRE1α-KR43 200 nM; for fold activation of IRE1α-KR43 RNase activity: [32P]-labeled HP21; for IRE1α RNase activation (in words): versus DMSO control or cmp6/cmp7. The method, then:
To this end, we modified the molecule by substituting urea-linked and variably m- and p-substituted phenyl groups for the benzimidazole of APY29. Diphenyl urea linkers have previously been used successfully in the design of kinase inhibitors ([Dar et al., 2008]; [Dar and Shokat, 2011]; [Korennykh et al., 2012]). In exploring the addition of this chemotype on the APY29 scaffold, we generated a panel of 10 variants (Figure 1B). Each member of the panel was tested in an RNase activity assay using recombinant IRE1α-KR43 and a labeled short hairpin RNA substrate derived from human XBP1 mRNA. IRE1α-KR43 comprises the soluble cytoplasmic portion of IRE1α, composed of the kinase and RNase domains plus 43 amino acids of the linker that bridges the kinase to its transmembrane domain.
Human IRE1α-KR43 with a hexa-histidine (6xHis) tag in its N-terminus was expressed and purified in SF21 cells as described ([Li et al., 2010]). Cells were lysed in buffer containing 20 mM Tris-HCl, pH 7.5, 600 mM NaCl, 2 mM MgCl2, 3 mM imidazole, 10% glycerol, 1% Triton X-100, 3 mM β-mercaptoethanol, COMPlete protease inhibitors (Roche), and PhosSTOP phosphatase inhibitor cocktail (Roche) and passed through an AVESTIN emulsiflex-C3 3× times for complete lysis. The lysate was cleared using centrifugation at 100,000×g. Clear lysate was allowed to incubate on Ni-NTA agarose (Qiagen) beads for 2 hr before being washed 3× times with buffer containing 20 mM Tris-HCl, pH7.5, 600 mM NaCl, 2 mM MgCl2, 30 mM imidazole, 10% glycerol, and 3 mM β-mercaptoethanol. Protein was eluted from the column by raising the imidazole concentration to 250 mM. The eluate was then passed through a HiTrap desalting column (GE Healthcare). Lastly, the 6xHis was cleaved as described ([Li et al., 2010]) and the resulting protein was then loaded onto a HisTrap HP, 5 × 5 ml column to remove the uncleaved protein. The cleaved protein was then loaded on a Mono-S 5/50 GL column (GE Healthcare), and the eluate was then concentrated to 5 mg/ml and loaded on a Superdex 200 HR 10/300 (GE Healthare) column in buffer containing 20 mM Tris-HCl pH 7.5, 250 mM NaCl, 5% Glycerol and 5 mM tris(2-carboxyethyl)phosphine (TCEP). The pure protein solution was aliquoted and stored at −80°C.

Data set [4] deals with HEK293T cells. As to the kind of experiment: HEK293T cell viability (CellTiter-Blue, 24 hr). The format is cell-based. The following applies: STS dose response + 1 μM GSK PERK inhibitor. The method, then:
HEK293T cells were grown in DMEM (Sigma) complete media containing 10% FBS, 10 units/ml penicillin (Invitrogen), and 10 μg/ml streptomycin (Invitrogen). Cells were plated at a density of 30,000 cells per well in 96-well black plates with clear flat bottoms (Corning, Sigma-Aldrich) 24 hr before the experiment. A 12-point semi-logarithmic dilution series of compounds was made starting at 30 μM not to exceed 0.1% DMSO after final dilution into the growth media. Viability assays were conducted over the course of 24 hr. Cell viability was determined using CellTiter-Blue (Promega) following the manufacturer's instructions. […] Experiments were done in triplicate, and mean values were computed for each data point.
Background: Alamar Blue is a resazurin reagent that responds to reducing activity.

The test system of data set [5] is ATF6 transcriptional targets HERPUD1 (HERP1) and DERLIN3 (DERL3). In words: ATF6 target mRNAs HERP1 and DERL3 by RT-PCR in HEK293T cells. It counts as cell-based. The following applies: IPA 1 μM and 4 μM, Tm. The text has this:
To assess the effects of IPA on the activity of the two other UPR branches, we first examined activation of ATF6. To this end, we monitored mRNA levels by RT-PCR for two ATF6-driven transcriptional target genes, HERP1 and DERL3, in HEK293T cells.
Cells were lysed and total RNA was collected (Total RNA Kit 1, EZ-RNA, EZNA [USA]). PolyA^+ mRNA was reverse transcribed with M-MLV (Invitrogen), and the resulting cDNA was used as a template for PCR amplification across the fragment of XBP1 cDNA containing the intron. Primers used to amplify human XBP1: 5′-[…]-3′ and 5′-[…]-3′. To amplify murine XBP1: 5′-[…]-3′ and 5′-[…]-3′. PCR conditions were as follows: 95°C for 5 min, 95°C for 1 min, 58°C for 30 s, 72°C for 30 s, and 72°C for 5 min, with 20 cycles of amplification. PCR products were resolved on a 2.5% agarose tris-acetate EDTA (TAE) gel. As previously reported, a hybrid amplicon species consisting of unspliced Xbp-1 annealed to spliced Xbp-1 can also be produced through this PCR reaction and was visible as a slower migrating band above the unspliced amplicon. The same cDNA was used as template for PCR of DERLIN-3 and HERPUD1, both ATF6 targets, and GAPDH, which was used as loading control. Primers used included the following: DERLIN-3, 5′-[…]-3′ and 5′-[…]-3′; HERPUD1-1, 5′-[…]-3′ and 5′-[…]-3′; GAPDH, 5′-[…]-3′ and 5′-[…]-3′. […]

Data set [6] has as its system IRE1α-GFP in T-REx293 cells. In words: IRE1-GFP foci formation in T-REx293 cells (confocal microscopy). The format is cell-based. The following applies: doxycycline-induced IRE1α-GFP. The text has this: We next used a T-REx293 cell line, containing a genome-integrated doxycycline-inducible IRE1α-GFP fusion gene, to monitor IRE1α oligomerization in vivo ([Li et al., 2010]). In the presence of doxycycline, IRE1α-GFP was expressed and localized to the ER (Figure 2D). […] Furthermore, the foci dissolved by 8 hr of treatment as cells attenuated IRE1α signaling even in the presence of unmitigated ER stress (Figure 2D, upper panels) ([Li et al., 2010]). […] While Tm-induced foci became larger and fewer over time as previously observed, IPA-induced foci remained small and numerous.
T-REx293 cells were split 2 days before imaging onto glass-bottom micro-well dishes (MatTek) at 5 × 10^4 cells/dish. Doxycyclin-containing medium (10 nM doxycycline) was added for 24 hr, withdrawn before imaging and replaced with imaging media (Hank's Balanced Salt Solution [Gibco], 2% FBS, and 5 mM HEPES pH 7.0). Images were acquired on a spinning-disk confocal microscope as described ([Li et al., 2010]).

Data set [7] concerns the molecule itself. In words: cell-based or functional assay.
Data set [8] deals with the molecule itself. As to the kind of experiment: SEC; GST-PERK purified on GST-Sepharose and Superdex 200 10/300 gel filtration in buffer B (50 mM Tris pH 7.5, 50 mM NaCl, 5 mM MgCl2, 3 mM DTT, 1% glycerol); the paper does not say how the dimer was determined.
[9] abbreviates: compound 20 μM, RNase activity as a function of IRE1α-KR43 concentration.

T2 sequence (O75460 465-977 limits assumed): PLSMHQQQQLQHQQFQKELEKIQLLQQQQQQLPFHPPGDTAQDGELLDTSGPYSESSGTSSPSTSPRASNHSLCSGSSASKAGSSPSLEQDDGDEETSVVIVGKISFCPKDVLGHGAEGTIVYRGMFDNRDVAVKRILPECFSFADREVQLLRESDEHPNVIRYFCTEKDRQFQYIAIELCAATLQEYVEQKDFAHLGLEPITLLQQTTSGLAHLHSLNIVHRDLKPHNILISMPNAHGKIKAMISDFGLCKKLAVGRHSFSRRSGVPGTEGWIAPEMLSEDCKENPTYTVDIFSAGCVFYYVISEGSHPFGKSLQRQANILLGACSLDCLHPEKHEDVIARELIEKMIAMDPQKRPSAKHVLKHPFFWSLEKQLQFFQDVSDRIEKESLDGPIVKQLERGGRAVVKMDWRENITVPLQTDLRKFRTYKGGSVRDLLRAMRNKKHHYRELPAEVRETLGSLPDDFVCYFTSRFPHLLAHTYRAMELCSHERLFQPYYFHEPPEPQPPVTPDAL

What is called IC50 is the midpoint of a concentration-inhibition curve. A low value points to greater potency. One may read the EC50 as the concentration needed to bring the measured effect to its halfway point. Consider `c1cc(Nc2cc(C3CC3)[nH]n2)nc(Nc2ccc3[nH]cnc3c2)n1` [APY29, reference compound], for which inhibition in data set [1] was half-maximal at 690 nM (IC50). The molecule further had an EC50 in data set [2] of 5200 nM. Besides, the “fold activation of IRE1α-KR43 RNase activity” value (“fold activation” below) in data set [3] is given as “fivefold”.

As to `CN[C@@H]1C[C@H]2O[C@@](C)([C@@H]1OC)n1c3ccccc3c3c4c(c5c6ccccc6n2c5c31)C(=O)NC4` [STS, staurosporine, reference compound], the “change of cell viability dose response in the presence of 1 μM GSK” value in data set [4] is “No change in cell viability was observed”.

As to `O=C(Nc1ccc(Nc2nccc(Nc3cc(C4CC4)[nH]n3)n2)cc1)Nc1cccc(C(F)(F)F)c1` [cmp1], inhibition in data set [1] was half-maximal at 4500 nM (IC50). The EC50 in data set [2] stood at 950 nM. Besides, in data set [3] (compound 20 μM), the “fold lower enzyme concentration at ½ kmax, obs versus no activator” value is 3 fold. In data set [3] (setting [9]), the “1/2kmax, obs (IRE1α-KR43 concentration at half-maximal kobs)” value was 3 µM and the Hill coefficient n stood at 3.8. Besides, the “fold activation” value in data set [3] is 10–100 fold.

As to `Cc1ccc(NC(=O)Nc2ccc(Nc3nccc(Nc4cc(C5CC5)[nH]n4)n3)cc2)cc1` [cmp2], in data set [3], the “fold activation” value is listed as 10–100 fold.

Take `CCc1ccc(NC(=O)Nc2ccc(Nc3nccc(Nc4cc(C5CC5)[nH]n4)n3)cc2)cc1` [cmp3]: the “fold activation” value in data set [3] was 10–100 fold.

Regarding `COc1cccc(NC(=O)Nc2ccc(Nc3nccc(Nc4cc(C5CC5)[nH]n4)n3)cc2)c1` [cmp4], in data set [3], the “fold activation” value is on record as 10–100 fold.

For the molecule `COc1ccc(NC(=O)Nc2ccc(Nc3nccc(Nc4cc(C5CC5)[nH]n4)n3)cc2)cc1` [cmp5], the “fold activation” value in data set [3] is listed as 10–100 fold.

With `O=C(Nc1ccc(I)cc1)Nc1ccc(Nc2nccc(Nc3cc(C4CC4)[nH]n3)n2)cc1` [cmp7], the “fold activation” value in data set [3] amounted to 900 fold.

In the case of `O=C(Nc1ccc(Br)cc1)Nc1ccc(Nc2nccc(Nc3cc(C4CC4)[nH]n3)n2)cc1` [cmp8], in data set [3], the “IRE1α RNase activation (in words)” value was “decreased activities”.

For the molecule `CC(C)c1ccc(NC(=O)Nc2ccc(Nc3nccc(Nc4cc(C5CC5)[nH]n4)n3)cc2)cc1` [cmp9], in data set [3], the “IRE1α RNase activation (in words)” value is recorded as “decreased activities”.

In the case of `CC(C)(C)c1ccc(NC(=O)Nc2ccc(Nc3nccc(Nc4cc(C5CC5)[nH]n4)n3)cc2)cc1` [cmp10], the “IRE1α RNase activation (in words)” value in data set [3] was “decreased activities”.

On to tunicamycin [Tm, reference compound], for which the “induction of ATF6 target genes HERP1 and DERL3” value in data set [5] is “induced the expression of these two genes”. In data set [6], the IRE1α-GFP foci formation result was “rapidly induced the relocalization of IRE1α-GFP into discrete foci”.

B1: PERK cytosolic domain (535–1093 Δ660–868) (domain or fragment, human, UniProt Q9NZJ5 535-1093, looked up)
chain: ATTFIVRRLFHPHPHRQRKESETQCQTENKYDSVSGEANDSSWNDIKNSGYISRYLTDFEPIQCLGRGGFGVVFEAKNKVDDCNYAIKRIRLPNRELAREKVMREVKALAKLEHPGIVRYFNAWLKNTTEKLQPSSPKVYLYIQMQLCRKENLKDWMNGRCTIEERERSVCLHIFLQIAEAVEFLHSKGLMHRDLKPSNIFFTMDDVVKVGDFGLVTAMDQDEEEQTVLTPMPAYARHTGQVGTKLYMSPEQIHGNSYSHKVDIFSLGLILFELLYPFSTQMERVRTLTDVRNLKFPPLFTQKYPCEYVMVQDMLSPSPMERPEAINIIENAVFEDLDFPGKTVLRQRSR
With B1, in data set [7], the “rate of eIF2α phosphorylation by the PERK cytoplasmic domain against IPA concentration, fold change normalised to DMSO control; greatest activation at 500 nM IPA” value was 3.3 fold.

B2: GST-PERK kinase domain (580–1077 aa) (domain or fragment, murine, UniProt Q9Z2B5 580-1077, looked up)
chain: T1 sequence (Q9Z2B5 580-1077)
notes: PERK, murine, cytosolic kinase domain, residues 580–1077; The dimer may therefore be held by GST; also called PERK-GST fusion protein; GST-PERK fusion protein; source: E. coli BL21DE3 RIPL, purified (GST-Sepharose, Superdex 200 10/300); not shown: GST, N-terminal, kept
Usually stoichiometry N stands for the number of molecules, sites or subunits per partner or assembly. For B2, the “stoichiometry N” value in data set [8] was 2.

The values are drawn from article PMC4436593, “Endoplasmic reticulum stress-independent activation of unfolded protein response kinases by a small molecule ATP-mimic” (eLife, 2015).
